Patent US20230399342A1 (Incyte Corporation, priority 2022, published 2023)

Experiments:
DGKα = DGKα (Homo sapiens (Human), UniProt P23743); test: In vitro DGKα inhibition assay (ADP-Glo); assay type: biochemical; conditions: His-tagged human recombinant enzyme, 0.1 nM DGKα, 50 μM ATP, 20 μM DLG, 90 minute incubation
Summary of the method: (§1)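 His-tagged human DGKα (0.1 nM, 50 μM ATP) or DGKζ (0.4 nM, 30 μM ATP), each with 20 μM DLG, in Tris pH 7.5 buffer with CHAPS, Mg2+, Ca2+.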

DGKζ = DGKζ (Homo sapiens (Human), UniProt Q13574); test: In vitro DGKζ inhibition assay (ADP-Glo); assay type: biochemical; conditions: His-tagged human recombinant enzyme, 0.4 nM DGK, 30 μM ATP, 20 μM DLG, 90 minute incubation
Summary of the method: as §1

Sequence of DGKα (P23743 whole entry): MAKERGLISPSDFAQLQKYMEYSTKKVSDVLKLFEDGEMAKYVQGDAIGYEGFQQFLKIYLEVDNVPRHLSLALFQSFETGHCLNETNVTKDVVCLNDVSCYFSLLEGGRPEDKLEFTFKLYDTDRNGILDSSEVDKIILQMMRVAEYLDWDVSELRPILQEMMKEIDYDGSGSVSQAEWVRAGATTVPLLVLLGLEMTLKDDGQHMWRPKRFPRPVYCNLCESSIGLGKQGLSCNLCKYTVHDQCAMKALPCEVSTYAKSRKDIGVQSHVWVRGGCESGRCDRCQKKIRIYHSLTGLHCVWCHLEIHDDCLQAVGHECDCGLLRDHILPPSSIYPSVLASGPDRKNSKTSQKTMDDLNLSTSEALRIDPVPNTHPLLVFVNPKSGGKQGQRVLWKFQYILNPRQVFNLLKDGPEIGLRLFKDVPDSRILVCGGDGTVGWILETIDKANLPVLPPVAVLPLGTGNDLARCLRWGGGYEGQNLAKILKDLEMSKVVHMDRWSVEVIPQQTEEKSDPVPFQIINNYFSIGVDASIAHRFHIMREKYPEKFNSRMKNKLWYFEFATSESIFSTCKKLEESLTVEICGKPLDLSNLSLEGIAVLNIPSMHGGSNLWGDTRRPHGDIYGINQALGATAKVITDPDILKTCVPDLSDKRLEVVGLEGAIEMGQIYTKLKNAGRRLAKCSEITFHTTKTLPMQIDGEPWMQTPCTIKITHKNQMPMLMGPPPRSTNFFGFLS
Sequence of DGKζ (Q13574 whole entry): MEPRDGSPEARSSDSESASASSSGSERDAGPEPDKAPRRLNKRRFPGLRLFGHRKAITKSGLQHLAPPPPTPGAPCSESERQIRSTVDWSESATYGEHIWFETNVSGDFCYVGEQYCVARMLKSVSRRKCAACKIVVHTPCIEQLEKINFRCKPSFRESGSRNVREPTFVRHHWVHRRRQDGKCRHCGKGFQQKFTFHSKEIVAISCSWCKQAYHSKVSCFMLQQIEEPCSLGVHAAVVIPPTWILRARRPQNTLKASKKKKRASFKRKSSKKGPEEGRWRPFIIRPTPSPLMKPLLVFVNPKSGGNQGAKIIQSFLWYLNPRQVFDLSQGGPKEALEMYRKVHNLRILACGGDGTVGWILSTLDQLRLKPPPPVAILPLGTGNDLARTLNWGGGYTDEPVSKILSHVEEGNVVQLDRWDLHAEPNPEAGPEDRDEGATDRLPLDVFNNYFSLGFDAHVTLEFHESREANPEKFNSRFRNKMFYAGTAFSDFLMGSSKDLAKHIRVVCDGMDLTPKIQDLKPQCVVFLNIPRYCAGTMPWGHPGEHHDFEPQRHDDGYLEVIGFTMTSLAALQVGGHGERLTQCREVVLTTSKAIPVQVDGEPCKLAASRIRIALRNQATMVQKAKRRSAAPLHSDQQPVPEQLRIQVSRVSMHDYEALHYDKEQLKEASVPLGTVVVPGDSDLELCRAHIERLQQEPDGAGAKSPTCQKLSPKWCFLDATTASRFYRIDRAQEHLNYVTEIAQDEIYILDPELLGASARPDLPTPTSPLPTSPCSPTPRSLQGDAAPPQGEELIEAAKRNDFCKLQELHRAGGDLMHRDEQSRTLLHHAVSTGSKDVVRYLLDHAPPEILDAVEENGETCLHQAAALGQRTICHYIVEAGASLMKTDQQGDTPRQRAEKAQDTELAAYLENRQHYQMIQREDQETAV

Cc1nc2c(N3C[C@@H](CO)N(C(c4ccc(C(F)(F)F)cc4)C4CC(F)(F)C4)C[C@@H]3C)nc3nncn3c2n1C[C@@H]1CCCO1 (stereo partly drawn) [Example 122, ((2S,5S)-1-((3,3-Difluorocyclobutyl)(4-(trifluoromethyl)phenyl)methyl)-5-methyl-4-(2-methyl-1-(((S)-tetrahydrofuran-2-yl)methyl)-1H-[1,2,4]triazolo[3,4-b]purin-4-yl)piperazin-2-yl)methanol]
IC50 (DGKα): ≤ 20 nM | IC50 (DGKζ): ≤ 20 nM

Cc1nc2c(N3C[C@@H](C)N(C(c4ccc(Cl)c(C(F)(F)F)c4)C4CC(F)(F)C4)C[C@@H]3C)nc3nncn3c2n1C[C@@H]1CCCO1 (stereo partly drawn) [Example 59, 4-((2S,5R)-4-((4-Chloro-3-(trifluoromethyl)phenyl)(3,3-difluorocyclobutyl)methyl)-2,5-dimethylpiperazin-1-yl)-2-methyl-1-(((S)-tetrahydrofuran-2-yl)methyl)-1H-[1,2,4]triazolo[3,4-b]purine]
IC50 (DGKα): ≤ 20 nM | IC50 (DGKζ): ≤ 20 nM

CC[C@@H]1CN(c2nc3nncn3c3c2nc(C)n3C[C@H]2CCCO2)[C@@H](C)CN1C(c1ccc(Cl)cc1)c1ccc(Cl)cc1 [Example 42, 4-((2S,5R)-4-(Bis(4-chlorophenyl)methyl)-5-ethyl-2-methylpiperazin-1-yl)-2-methyl-1-(((R)-tetrahydrofuran-2-yl)methyl)-1H-[1,2,4]triazolo[3,4-b]purine]
IC50 (DGKα): ≤ 20 nM | IC50 (DGKζ): ≤ 20 nM
